Test results reported in the NIST ThermoML archive (doi:10.1021/je8008073).
± gives the expanded uncertainty stated by the source.

Assay: wn = mass fraction of the nth substance listed
Settings: Liquid; for mass density: Vibrating tube method; for viscosity: Falling or rolling sphere viscometry

CC(C)Cc1ccccc1 [(2-methylpropyl)benzene] + c1ccc2c(c1)CCCC2
Settings	mass density [kg/m3]	viscosity [mPa·s]
293.15 K, 100 kPa, w2 = 0.5	907.9 ± 1	–
293.15 K, 2000 kPa, w2 = 0.5	909.1 ± 1	–
293.15 K, 4000 kPa, w2 = 0.5	910.3 ± 1	–
293.15 K, 6000 kPa, w2 = 0.5	911.6 ± 1	–
293.15 K, 8000 kPa, w2 = 0.5	913 ± 1	–
293.15 K, 10000 kPa, w2 = 0.5	914.3 ± 1	–
293.15 K, 12000 kPa, w2 = 0.5	915.4 ± 1	–
293.15 K, 14000 kPa, w2 = 0.5	916.6 ± 1	–
293.15 K, 16000 kPa, w2 = 0.5	917.7 ± 1	–
293.15 K, 18000 kPa, w2 = 0.5	918.8 ± 1	–
293.15 K, 20000 kPa, w2 = 0.5	920.1 ± 1	–
295.65 K, 100 kPa, w2 = 0.5	905.7 ± 1	–
295.65 K, 2000 kPa, w2 = 0.5	906.8 ± 1	–
295.65 K, 4000 kPa, w2 = 0.5	908.1 ± 1	–
295.65 K, 6000 kPa, w2 = 0.5	909.3 ± 1	–
295.65 K, 8000 kPa, w2 = 0.5	910.6 ± 1	–
295.65 K, 10000 kPa, w2 = 0.5	911.9 ± 1	–
295.65 K, 12000 kPa, w2 = 0.5	913.1 ± 1	–
295.65 K, 14000 kPa, w2 = 0.5	914.3 ± 1	–
295.65 K, 16000 kPa, w2 = 0.5	915.4 ± 1	–
295.65 K, 18000 kPa, w2 = 0.5	916.6 ± 1	–
295.65 K, 20000 kPa, w2 = 0.5	917.7 ± 1	–
298.15 K, 100 kPa, w2 = 0.48	901.3 ± 1	–
298.15 K, 100 kPa, w2 = 0.49	902.5 ± 1	–
298.15 K, 100 kPa, w2 = 0.5	903.6 ± 1	1.33 ± 0.05
298.15 K, 100 kPa, w2 = 0.51	905 ± 1	–
298.15 K, 100 kPa, w2 = 0.52	906 ± 1	–
298.15 K, 2000 kPa, w2 = 0.48	902.6 ± 1	–
298.15 K, 2000 kPa, w2 = 0.49	903.8 ± 1	–
298.15 K, 2000 kPa, w2 = 0.5	904.7 ± 1	–
298.15 K, 2000 kPa, w2 = 0.51	906.2 ± 1	–
298.15 K, 2000 kPa, w2 = 0.52	907.3 ± 1	–
298.15 K, 4000 kPa, w2 = 0.48	904 ± 1	–
298.15 K, 4000 kPa, w2 = 0.49	905.1 ± 1	–
298.15 K, 4000 kPa, w2 = 0.5	906.1 ± 1	1.37 ± 0.06
298.15 K, 4000 kPa, w2 = 0.51	907.6 ± 1	–
298.15 K, 4000 kPa, w2 = 0.52	908.8 ± 1	–
298.15 K, 6000 kPa, w2 = 0.48	905.3 ± 1	–
298.15 K, 6000 kPa, w2 = 0.49	906.4 ± 1	–
298.15 K, 6000 kPa, w2 = 0.5	907.5 ± 1	–
298.15 K, 6000 kPa, w2 = 0.51	908.8 ± 1	–
298.15 K, 6000 kPa, w2 = 0.52	910 ± 1	–
298.15 K, 8000 kPa, w2 = 0.48	906.6 ± 1	–
298.15 K, 8000 kPa, w2 = 0.49	907.7 ± 1	–
298.15 K, 8000 kPa, w2 = 0.5	908.8 ± 1	–
298.15 K, 8000 kPa, w2 = 0.51	910.1 ± 1	–
298.15 K, 8000 kPa, w2 = 0.52	911.2 ± 1	–
298.15 K, 10000 kPa, w2 = 0.48	907.8 ± 1	–
298.15 K, 10000 kPa, w2 = 0.49	909 ± 1	–
298.15 K, 10000 kPa, w2 = 0.5	910.1 ± 1	1.43 ± 0.06
298.15 K, 10000 kPa, w2 = 0.51	911.2 ± 1	–
298.15 K, 10000 kPa, w2 = 0.52	912.4 ± 1	–
298.15 K, 12000 kPa, w2 = 0.48	909 ± 1	–
298.15 K, 12000 kPa, w2 = 0.49	910.2 ± 1	–
298.15 K, 12000 kPa, w2 = 0.5	911.3 ± 1	–
298.15 K, 12000 kPa, w2 = 0.51	912.5 ± 1	–
298.15 K, 12000 kPa, w2 = 0.52	913.6 ± 1	–
298.15 K, 14000 kPa, w2 = 0.48	910.2 ± 1	–
298.15 K, 14000 kPa, w2 = 0.49	911.5 ± 1	–
298.15 K, 14000 kPa, w2 = 0.5	912.5 ± 1	–
298.15 K, 14000 kPa, w2 = 0.51	913.7 ± 1	–
298.15 K, 14000 kPa, w2 = 0.52	914.8 ± 1	–
298.15 K, 16000 kPa, w2 = 0.48	911.4 ± 1	–
298.15 K, 16000 kPa, w2 = 0.49	912.6 ± 1	–
298.15 K, 16000 kPa, w2 = 0.5	913.7 ± 1	–
298.15 K, 16000 kPa, w2 = 0.51	915 ± 1	–
298.15 K, 16000 kPa, w2 = 0.52	916 ± 1	–
298.15 K, 18000 kPa, w2 = 0.48	912.6 ± 1	–
298.15 K, 18000 kPa, w2 = 0.49	913.7 ± 1	–
298.15 K, 18000 kPa, w2 = 0.5	914.9 ± 1	–
298.15 K, 18000 kPa, w2 = 0.51	916.1 ± 1	–
298.15 K, 18000 kPa, w2 = 0.52	917.1 ± 1	–
298.15 K, 20000 kPa, w2 = 0.48	913.8 ± 1	–
298.15 K, 20000 kPa, w2 = 0.49	914.9 ± 1	–
298.15 K, 20000 kPa, w2 = 0.5	916.1 ± 1	–
298.15 K, 20000 kPa, w2 = 0.51	917.2 ± 1	–
298.15 K, 20000 kPa, w2 = 0.52	918.2 ± 1	–
300.65 K, 100 kPa, w2 = 0.5	901.5 ± 1	–
300.65 K, 2000 kPa, w2 = 0.5	902.9 ± 1	–
300.65 K, 4000 kPa, w2 = 0.5	904.2 ± 1	–
300.65 K, 6000 kPa, w2 = 0.5	905.4 ± 1	–
300.65 K, 8000 kPa, w2 = 0.5	906.8 ± 1	–
300.65 K, 10000 kPa, w2 = 0.5	908 ± 1	–
300.65 K, 12000 kPa, w2 = 0.5	909.2 ± 1	–
300.65 K, 14000 kPa, w2 = 0.5	910.4 ± 1	–
300.65 K, 16000 kPa, w2 = 0.5	911.6 ± 1	–
300.65 K, 18000 kPa, w2 = 0.5	912.8 ± 1	–
300.65 K, 20000 kPa, w2 = 0.5	914 ± 1	–
303.15 K, 100 kPa, w2 = 0.5	900 ± 1	–
303.15 K, 2000 kPa, w2 = 0.5	901.3 ± 1	–
303.15 K, 4000 kPa, w2 = 0.5	902.6 ± 1	–
303.15 K, 6000 kPa, w2 = 0.5	904 ± 1	–
303.15 K, 8000 kPa, w2 = 0.5	905.3 ± 1	–
303.15 K, 10000 kPa, w2 = 0.5	906.5 ± 1	–
303.15 K, 12000 kPa, w2 = 0.5	907.8 ± 1	–
303.15 K, 14000 kPa, w2 = 0.5	909 ± 1	–
303.15 K, 16000 kPa, w2 = 0.5	910.3 ± 1	–
303.15 K, 18000 kPa, w2 = 0.5	911.4 ± 1	–
303.15 K, 20000 kPa, w2 = 0.5	912.6 ± 1	–
